Measurements: patent US12383577B2, “Polysaccharide compound with a defined molecular structure that can eliminate the toxic side effects of chemotherapy drugs” (SHENZHEN YANDAI INVESTMENT CO., LTD, priority 2023, dated 2025)
Marks after values point to notes of the source that are not given here.

Experiments:
[1] = test system: lymphocyte subtypes CD3+/CD4+ and CD3+/CD8+ in the blood; assay: Orthotopic H22-bearing mice study: blood CD3+/CD4+ and CD3+/CD8+ by flow cytometry; type: in vivo, C57 mice; settings: blood after last dose, cisplatin 4 mg/kg i.p., Kanglaite soft capsule 1404 mg/kg oral, GLP-2 low dose 130 mg/kg oral
Protocol: (§1) An additional 6 mice served as the normal control group.
CD4^+and CD8^+content measurement: After the last dose, lymphocyte subtypes CD3^+/CD4^+and CD3^+/CD8^+in the blood were measured using flow cytometry.

[2] = LLC-bearing mice study: mortality, survival time, body weight, spleen and thymus indices; type: in vivo, C57 mice
Protocol: Healthy LLC cells were inoculated subcutaneously into the left shoulder of 8 healthy male C57 mice. Once tumors reached a volume of 2,000-3,000 mm3, they were harvested and homogenized to prepare a homogenate suspension. This suspension was then injected subcutaneously into the axilla of 52 healthy male C57 mice to establish a solid tumor model. Once all mouse tumors averaged a volume of about 180 mm3, mice were randomized into groups based on tumor volume and were administered the respective drugs or drug solvents via oral gavage or intraperitoneal injection for 18 consecutive days. Longest and shortest diameters of tumors were measured every three days to calculate tumor volume, and mouse weights were recorded every three days. At the end of the experiment, tumors, spleens, and thymuses were harvested and weighed to calculate tumor, spleen, and thymus indices.
(§2) Spleen and thymus organ coefficients: After the last dose, spleen, thymus, and tumor weights are measured, and organ coefficients are calculated.

[3] = test system: orthotopic H22-bearing mice; assay: Orthotopic H22-bearing mice: liver tumor by small animal in vivo imaging; parameters: species or system C57 mice; settings: Kanglaite soft capsule 1404 mg/kg oral, GLP-2 low dose 130 mg/kg oral
Protocol: An additional 6 mice served as the normal control group. […] The proposed clinical dose for Kanglaite soft capsules is 0.45 g per capsule, 6 capsules per dose, 4 doses per day, which totals 10.8 g per day. […] This study used the proposed clinical dose as a basis for the experiment. […] [table] Tumor volume measurement: Tumor volume changes were measured weekly using small animal in vivo imaging technology.

[4] = test system: H22-bearing mice; assay: Antitumor effect of GLP-2 combined with chemotherapy on H22-bearing mice (tumor volume, tumor index, inhibition rates); type: in vivo, C57 mice; settings: for Tumor growth inhibition rate vs. the model control group: by tumor weight, cisplatin 3 mg/kg i.p. alone or + GLP-2 low dose 50 mg/kg oral
Protocol: A homogenate suspension of H22 mouse hepatoma was injected subcutaneously under the axilla of 45 healthy male C57 mice to create a solid tumor model. Once all mouse tumors averaged a volume of about 150 mm3, mice were randomized into groups based on tumor volume and were administered the respective drugs or drug solvents via oral gavage or intraperitoneal injection for 18 consecutive days. Longest and shortest diameters of tumors were measured every three days to calculate tumor volume, and mouse weights were recorded every three days. At the end of the experiment, tumors, spleens, and thymuses were harvested and weighed to calculate tumor, spleen, and thymus indices. […] [table] […] Where TRTV is the relative tumor volume in the experimental group, and CRTV is the relative tumor volume in the model control group. Relative tumor volume (RTV)=Vt/V0, where Vt is the tumor volume on day t of dosing, and V0 is the tumor volume at the time of grouping. […] Where T represents the average tumor weight in the treatment group, and C represents the average tumor weight in the model control group. […] Spleen and thymus organ coefficients: After the last dose, spleen, thymus, and tumor weights are measured, and organ coefficients are calculated.

[5] = H22-bearing mice study: mortality, survival time, body weight, spleen and thymus indices; type: in vivo, C57 mice
Protocol: A homogenate suspension of H22 mouse hepatoma was injected subcutaneously under the axilla of 45 healthy male C57 mice to create a solid tumor model. Once all mouse tumors averaged a volume of about 150 mm3, mice were randomized into groups based on tumor volume and were administered the respective drugs or drug solvents via oral gavage or intraperitoneal injection for 18 consecutive days. Longest and shortest diameters of tumors were measured every three days to calculate tumor volume, and mouse weights were recorded every three days. At the end of the experiment, tumors, spleens, and thymuses were harvested and weighed to calculate tumor, spleen, and thymus indices.
as §2

[6] = test system: LLC-bearing mice; assay: Antitumor effect of GLP-2 combined with chemotherapy on LLC-bearing mice (tumor volume, tumor index, inhibition rates); type: in vivo, C57 mice
Protocol: Healthy LLC cells were inoculated subcutaneously into the left shoulder of 8 healthy male C57 mice. […] This suspension was then injected subcutaneously into the axilla of 52 healthy male C57 mice to establish a solid tumor model. Once all mouse tumors averaged a volume of about 180 mm3, mice were randomized into groups based on tumor volume and were administered the respective drugs or drug solvents via oral gavage or intraperitoneal injection for 18 consecutive days. Longest and shortest diameters of tumors were measured every three days to calculate tumor volume, and mouse weights were recorded every three days. At the end of the experiment, tumors, spleens, and thymuses were harvested and weighed to calculate tumor, spleen, and thymus indices. […] [table] […] Where TRTV is the relative tumor volume in the experimental group, and CRTV is the relative tumor volume in the model control group. Relative tumor volume (RTV)=Vt/V0, where Vt is the tumor volume on day t of dosing, and V0 is the tumor volume at the time of grouping. […] Where T represents the average tumor weight in the treatment group, and C represents the average tumor weight in the model control group. […] Spleen and thymus organ coefficients: After the last dose, spleen, thymus, and tumor weights are measured, and organ coefficients are calculated.

[7] = Orthotopic H22-bearing mice study: routine blood tests and liver/kidney function indicators; type: in vivo, C57 mice; settings: blood after last dose, cisplatin 4 mg/kg i.p., Kanglaite soft capsule 1404 mg/kg oral, GLP-2 low dose 130 mg/kg oral
Protocol: as §1
Hematological tests: After the last dose, routine blood tests (WBC and RBC) and biochemical tests (liver and kidney functions) were performed.

[8] = Orthotopic H22-bearing mice study: mortality, body weight, organ coefficients; type: in vivo; settings: Kanglaite soft capsule 1404 mg/kg oral, GLP-2 low dose 130 mg/kg oral
Text: as §1

[9] = D0, cisplatin 4 mg/kg i.p. alone or + GLP-2 low dose 50 mg/kg oral
[10] = D3, cisplatin 4 mg/kg i.p. alone or + GLP-2 low dose 50 mg/kg oral
[11] = D6, cisplatin 4 mg/kg i.p. alone or + GLP-2 low dose 50 mg/kg oral
[12] = D9, cisplatin 4 mg/kg i.p. alone or + GLP-2 low dose 50 mg/kg oral
[13] = D12, cisplatin 4 mg/kg i.p. alone or + GLP-2 low dose 50 mg/kg oral
[14] = D15, cisplatin 4 mg/kg i.p. alone or + GLP-2 low dose 50 mg/kg oral
[15] = D18, cisplatin 4 mg/kg i.p. alone or + GLP-2 low dose 50 mg/kg oral
[16] = D0, cisplatin 3 mg/kg i.p. alone or + GLP-2 low dose 50 mg/kg oral
[17] = D3, cisplatin 3 mg/kg i.p. alone or + GLP-2 low dose 50 mg/kg oral
[18] = D6, cisplatin 3 mg/kg i.p. alone or + GLP-2 low dose 50 mg/kg oral
[19] = D9, cisplatin 3 mg/kg i.p. alone or + GLP-2 low dose 50 mg/kg oral
[20] = D12, cisplatin 3 mg/kg i.p. alone or + GLP-2 low dose 50 mg/kg oral
[21] = D15, cisplatin 3 mg/kg i.p. alone or + GLP-2 low dose 50 mg/kg oral
[22] = D18, cisplatin 3 mg/kg i.p. alone or + GLP-2 low dose 50 mg/kg oral
[23] = 18 days, cisplatin 3 mg/kg i.p. alone or + GLP-2 low dose 50 mg/kg oral
[24] = 14 days, cisplatin 4 mg/kg i.p.

In the case of `N.N.[Cl][Pt][Cl]` [Cisplatin], the “CD3^+/CD4^+” value [1] is reported as 4.26 ± 0.04, the “CD3^+/CD8^+” value [1] is reported as 4.21 ± 0.81 and the Number of deaths ([2]; 18 days, cisplatin 4 mg/kg i.p. alone or + GLP-2 low dose 50 mg/kg oral) is reported as 2. For the same molecule, the Weight [2, 9] was 20.8 ± 1.4 g, the Weight [2, 10] was 20.7 ± 1.3 g and the Weight [2, 11] was 20.4 ± 1 g. The Weight [2, 12] was 19.7± 0.8*^+ g, the Weight [2, 13] was 18.5 ± 0.6*+ g and the Weight [2, 14] was 18.2± 1.2*^+ g. The Weight [2, 15] was 17.9± 1.4*^+ g, the Survival time ([2]; cisplatin 4 mg/kg i.p. alone or + GLP-2 low dose 50 mg/kg oral) was 17.1 ± 1.9 days and the Tumor ([3]; W0, cisplatin 4 mg/kg i.p.) was 3756000 ± 2439052 P/s/cm^2/sr. For the same molecule, the Tumor ([3]; W1, cisplatin 4 mg/kg i.p.) was 12898500 ± 3588676 P/s/cm^2/sr, the Tumor ([3]; W2, cisplatin 4 mg/kg i.p.) was 11871333 ± 2780016^& P/s/cm^2/sr and the Tumor volume [4, 16] was 167.9 ± 42.2 mm^3. For the same molecule, the Tumor volume [4, 17] was 205.9 ± 122.5 mm^3, the Tumor volume [4, 18] was 417.4 ± 228.3 mm^3 and the Tumor volume [4, 19] was 577.3 ± 420.2 mm^3. For the same molecule, the Tumor volume [4, 20] was 798± 676.5^+ mm^3, the Tumor volume [4, 21] was 952.7± 711.9^+ mm^3 and the Tumor volume [4, 22] was 1097± 805.3^+ mm^3. For the same molecule, the “Tumor growth inhibition rate vs. the model control group” value [4] was 57.3^+ %, the “Tumor growth inhibition rate vs. the model control group” value ([4]; listed as cisplatin) was 57.3% and the Mortality rate [5, 23] was 0.0%. It also gave a Number of deaths [5, 23] of 0, a Weight [5, 16] of 20.6 ± 1.3 g and a Weight [5, 17] of 20.8 ± 1.3 g. The Weight [5, 18] was 21 ± 1.3 g, the Weight [5, 19] was 21 ± 1.5 g and the Weight [5, 20] was 20.7± 1.4^+ g. For the same molecule, the Weight [5, 21] was 20.5± 1.4^+ g, the Weight [5, 22] was 19.9± 1.7^+ g and the Survival time ([5]; cisplatin 3 mg/kg i.p. alone or + GLP-2 low dose 50 mg/kg oral) was 18 ± 0 days. For the same molecule, the Tumor volume [6, 9] was 193 ± 41.9 mm^3, the Tumor volume [6, 10] was 350.8 ± 138.5 mm^3 and the Tumor volume [6, 11] was 692.4± 215.3^+ mm^3. For the same molecule, the Tumor volume [6, 12] was 956.4± 394^+ mm^3, the Tumor volume [6, 13] was 1186.6± 386.4^+ mm^3 and the Tumor volume [6, 14] was 1388.9± 448.2^+ mm^3. For the same molecule, the Tumor volume [6, 15] was 1679.8± 439^+ mm^3, the “Tumor growth inhibition rate vs. the model control group” value ([6]; by tumor weight, cisplatin 4 mg/kg i.p. alone or + GLP-2 low dose 50 mg/kg oral) was 67.3% and the ALT [7] was 115 ± 39 U/L. It also gave an AST [7] of 771 ± 153 UL, a BUN [7] of 13.52 ± 4.94 mmol/L and a CRE [7] of 18.9 ± 2.7 µmol/L. For the same molecule, the RBC [7] was 8.91 ± 0.22 10^12/L, the WBC [7] was 4.41 ± 1.83 10^9/L and the Mortality rate [8, 24] was 50.0%. For the same molecule, the Number of deaths [8, 24] was 3, the “Number of surviving animals” value [8, 24] was 3 and the Weight ([8]; W0, cisplatin 4 mg/kg i.p.) was 18.5 ± 1.3 g. It also gave a Weight ([8]; W1, cisplatin 4 mg/kg i.p.) of 16.9 ± 1.8 g, a Weight ([8]; W2, cisplatin 4 mg/kg i.p.) of 15.1 ± 1.6 g and a Liver coefficient ([8]; cisplatin 4 mg/kg i.p.) of 11.365 ± 3.599%. It also gave a Spleen coefficient ([8]; cisplatin 4 mg/kg i.p.) of 0.524± 0.295 % and a Thymus coefficient ([8]; cisplatin 4 mg/kg i.p.) of 0.078 ± 0.023 %.
